Reference: the NIST ThermoML archive (doi:10.1016/j.jct.2008.06.017)
± gives the expanded uncertainty stated by the source.

Tests used:
[1] = xn = mol fraction of the nth substance listed; details: Liquid, Vibrating tube method
[2] = Liquid, Vibrating tube method

COC(=O)OC [dimethyl carbonate] + C=CCOC(=O)C(=C)C
[1], x1 = 1
Details	mass density [kg/m3]
293.15 K	1069.79 ± 0.067
303.15 K	1056.75 ± 0.063
313.15 K	1043.37 ± 0.06

C=COC(C)=O [vinyl acetate]
[2]
Details	mass density [kg/m3]
293.15 K	931.95 ± 0.068
303.15 K	919.089 ± 0.072
313.15 K	906.116 ± 0.076

C=C(C)C(=O)OCCCC [butyl 2-methyl-2-propenoate] + COC(=O)OC
[1]
Details	mass density [kg/m3]
293.15 K, x2 = 0	895.231 ± 0.11
293.15 K, x2 = 0.0253	897.401 ± 0.11
293.15 K, x2 = 0.0496	899.525 ± 0.11
293.15 K, x2 = 0.1	904.247 ± 0.1
293.15 K, x2 = 0.1512	909.195 ± 0.099
293.15 K, x2 = 0.2002	914.234 ± 0.095
293.15 K, x2 = 0.2501	919.652 ± 0.092
293.15 K, x2 = 0.3	925.514 ± 0.088
293.15 K, x2 = 0.3496	931.664 ± 0.085
293.15 K, x2 = 0.4002	938.381 ± 0.082
293.15 K, x2 = 0.45	945.36 ± 0.079
293.15 K, x2 = 0.4998	952.885 ± 0.076
293.15 K, x2 = 0.5499	960.906 ± 0.074
293.15 K, x2 = 0.6	969.499 ± 0.071
293.15 K, x2 = 0.6499	978.774 ± 0.07
293.15 K, x2 = 0.7003	988.865 ± 0.069
293.15 K, x2 = 0.7501	999.691 ± 0.068
293.15 K, x2 = 0.7998	1011.24 ± 0.072
293.15 K, x2 = 0.8502	1024.04 ± 0.076
293.15 K, x2 = 0.8997	1037.82 ± 0.082
293.15 K, x2 = 0.9499	1053.1 ± 0.087
293.15 K, x2 = 0.9747	1061.18 ± 0.091
303.15 K, x2 = 0	885.991 ± 0.11
303.15 K, x2 = 0.0255	888.128 ± 0.11
303.15 K, x2 = 0.0511	890.378 ± 0.11
303.15 K, x2 = 0.0984	894.561 ± 0.11
303.15 K, x2 = 0.1496	899.445 ± 0.1
303.15 K, x2 = 0.1998	904.542 ± 0.098
303.15 K, x2 = 0.251	909.93 ± 0.094
303.15 K, x2 = 0.3	915.538 ± 0.091
303.15 K, x2 = 0.3498	921.462 ± 0.087
303.15 K, x2 = 0.4002	927.876 ± 0.084
303.15 K, x2 = 0.4505	934.768 ± 0.081
303.15 K, x2 = 0.5001	942.022 ± 0.078
303.15 K, x2 = 0.5497	949.757 ± 0.076
303.15 K, x2 = 0.6003	958.326 ± 0.074
303.15 K, x2 = 0.6507	967.581 ± 0.072
303.15 K, x2 = 0.7003	977.274 ± 0.07
303.15 K, x2 = 0.7503	987.854 ± 0.069
303.15 K, x2 = 0.8003	999.303 ± 0.069
303.15 K, x2 = 0.8497	1011.72 ± 0.073
303.15 K, x2 = 0.8997	1025.31 ± 0.079
303.15 K, x2 = 0.95	1040.3 ± 0.083
303.15 K, x2 = 0.9746	1048.26 ± 0.088
313.15 K, x2 = 0	876.19 ± 0.12
313.15 K, x2 = 0.0248	878.23 ± 0.12
313.15 K, x2 = 0.0506	880.426 ± 0.11
313.15 K, x2 = 0.1009	884.856 ± 0.11
313.15 K, x2 = 0.1505	889.457 ± 0.1
313.15 K, x2 = 0.2003	894.361 ± 0.1
313.15 K, x2 = 0.2512	899.681 ± 0.097
313.15 K, x2 = 0.3005	905.153 ± 0.093
313.15 K, x2 = 0.3502	910.961 ± 0.09
313.15 K, x2 = 0.4009	917.353 ± 0.087
313.15 K, x2 = 0.4509	924.075 ± 0.084
313.15 K, x2 = 0.4999	931.103 ± 0.081
313.15 K, x2 = 0.5506	938.855 ± 0.078
313.15 K, x2 = 0.6	947.003 ± 0.076
313.15 K, x2 = 0.6502	955.954 ± 0.074
313.15 K, x2 = 0.7002	965.503 ± 0.072
313.15 K, x2 = 0.7503	975.976 ± 0.071
313.15 K, x2 = 0.7999	987.089 ± 0.071
313.15 K, x2 = 0.8501	999.417 ± 0.071
313.15 K, x2 = 0.8998	1012.69 ± 0.076
313.15 K, x2 = 0.9498	1027.3 ± 0.08
313.15 K, x2 = 0.9751	1035.15 ± 0.085

COC(=O)OC [dimethyl carbonate]
[2]
Details	mass density [kg/m3]
293.15 K	1069.79 ± 0.068
303.15 K	1056.75 ± 0.064
313.15 K	1043.37 ± 0.06

COC(=O)OC [dimethyl carbonate] + C=COC(C)=O
[1], x1 = 1
Details	mass density [kg/m3]
293.15 K	1069.79 ± 0.067
303.15 K	1056.75 ± 0.063
313.15 K	1043.37 ± 0.06

COC(=O)OC [dimethyl carbonate] + C=Cc1ccccc1
[1], x1 = 1
Details	mass density [kg/m3]
293.15 K	1069.79 ± 0.067
303.15 K	1056.75 ± 0.063
313.15 K	1043.37 ± 0.06

C=CCOC(=O)C(=C)C [2-propenyl 2-methylpropenoate] + COC(=O)OC
[1]
Details	mass density [kg/m3]
293.15 K, x2 = 0	932.965 ± 0.14
293.15 K, x2 = 0.0254	935.07 ± 0.14
293.15 K, x2 = 0.0498	937.164 ± 0.13
293.15 K, x2 = 0.1006	941.619 ± 0.12
293.15 K, x2 = 0.1507	946.22 ± 0.12
293.15 K, x2 = 0.2	950.913 ± 0.11
293.15 K, x2 = 0.2505	955.966 ± 0.1
293.15 K, x2 = 0.2999	961.134 ± 0.096
293.15 K, x2 = 0.3499	966.623 ± 0.09
293.15 K, x2 = 0.4005	972.4 ± 0.084
293.15 K, x2 = 0.449	978.208 ± 0.08
293.15 K, x2 = 0.5	984.616 ± 0.075
293.15 K, x2 = 0.5499	991.215 ± 0.071
293.15 K, x2 = 0.5991	998.042 ± 0.067
293.15 K, x2 = 0.6502	1005.49 ± 0.066
293.15 K, x2 = 0.7	1013.17 ± 0.067
293.15 K, x2 = 0.7502	1021.34 ± 0.068
293.15 K, x2 = 0.8001	1029.9 ± 0.069
293.15 K, x2 = 0.8499	1039 ± 0.071
293.15 K, x2 = 0.9002	1048.71 ± 0.074
293.15 K, x2 = 0.9499	1058.87 ± 0.076
293.15 K, x2 = 0.975	1064.27 ± 0.078
303.15 K, x2 = 0	922.525 ± 0.14
303.15 K, x2 = 0.0253	924.591 ± 0.14
303.15 K, x2 = 0.0501	926.656 ± 0.14
303.15 K, x2 = 0.101	931.041 ± 0.13
303.15 K, x2 = 0.15	935.458 ± 0.12
303.15 K, x2 = 0.1999	940.145 ± 0.11
303.15 K, x2 = 0.2505	945.101 ± 0.1
303.15 K, x2 = 0.2999	950.165 ± 0.098
303.15 K, x2 = 0.3499	955.527 ± 0.092
303.15 K, x2 = 0.4003	961.195 ± 0.087
303.15 K, x2 = 0.447	966.662 ± 0.082
303.15 K, x2 = 0.5001	973.205 ± 0.077
303.15 K, x2 = 0.5501	979.68 ± 0.073
303.15 K, x2 = 0.5994	986.387 ± 0.069
303.15 K, x2 = 0.6502	993.661 ± 0.066
303.15 K, x2 = 0.7001	1001.19 ± 0.064
303.15 K, x2 = 0.7503	1009.19 ± 0.065
303.15 K, x2 = 0.8001	1017.58 ± 0.066
303.15 K, x2 = 0.8499	1026.47 ± 0.068
303.15 K, x2 = 0.9002	1035.99 ± 0.07
303.15 K, x2 = 0.9499	1046 ± 0.073
303.15 K, x2 = 0.975	1051.3 ± 0.075
313.15 K, x2 = 0	912.072 ± 0.14
313.15 K, x2 = 0.0247	914.028 ± 0.14
313.15 K, x2 = 0.0499	916.075 ± 0.14
313.15 K, x2 = 0.1002	920.29 ± 0.13
313.15 K, x2 = 0.1496	924.626 ± 0.12
313.15 K, x2 = 0.1997	929.2 ± 0.12
313.15 K, x2 = 0.2495	933.94 ± 0.11
313.15 K, x2 = 0.2999	938.979 ± 0.1
313.15 K, x2 = 0.3502	944.239 ± 0.095
313.15 K, x2 = 0.3999	949.688 ± 0.09
313.15 K, x2 = 0.4499	955.431 ± 0.085
313.15 K, x2 = 0.4997	961.436 ± 0.08
313.15 K, x2 = 0.5503	967.862 ± 0.076
313.15 K, x2 = 0.6001	974.504 ± 0.072
313.15 K, x2 = 0.6497	981.462 ± 0.069
313.15 K, x2 = 0.7001	988.916 ± 0.066
313.15 K, x2 = 0.7498	996.664 ± 0.063
313.15 K, x2 = 0.7998	1004.93 ± 0.063
313.15 K, x2 = 0.85	1013.71 ± 0.065
313.15 K, x2 = 0.8998	1023 ± 0.067
313.15 K, x2 = 0.9498	1032.83 ± 0.069
313.15 K, x2 = 0.9746	1037.94 ± 0.071
